Test results published in patent publication US8524911B2, “3-arylamino pyridine derivatives” (Merck Serono SA, priority 2004, dated 2013).

Assays:
Murine colon C26 cells = test: Tumor cell proliferation assay (ATP Lite), C26; format: cell-based; conditions: Mus musculus, 96 h, 4 days
Protocol: (§1) Assay 2: Tumor Cell Proliferation Assays (ATP Lite)
(§2) Murine colon C26, human melanoma A375 and MeI5 or human pancreatic MiaPaCa-2 cells were plated in 96 well Corning white plates (1500 cells/well for C26, and 2000 cells/well for A375, and MiaPaCa-2) and cultured overnight at 37° C. in 5% CO2. Inhibitors were serially diluted in 100% DMSO and subsequently added to cells to reach a final concentration of 0.25% DMSO. The cells were incubated for 4 days in the presence of test compounds in cell growth media (DMEM with 10% fetal bovine serum, 2 mM glutamine for C26, and MiaPaCa-2, and RPMI with 10% fetal bovine serum, 2 mM glutamine for A375). Cell proliferation was quantitated using the ATP lite cell proliferation kit (Packard). Columns 4-6 show the concentration of compounds required to induce 50% cell death (IC50 in μM) of […]. With “+” meaning 3 μM<IC50≦10 μM and “++” IC50≦3 μM and “n.d.” means not determined. Few compounds were also tested on human melanoma cell MeI5.

human MEK1 = human MEK1 (Homo sapiens, UniProt Q02750); test: MEK-1 Enzyme Assay (LANCE-HTRF); format: biochemical; conditions: 100 nM MEK1, 15 μM ATP, 300 nM ERK2, two hours; read-out: MEK inhibition
Protocol: Assay 1: MEK-1 Enzyme Assay (LANCE-HTRF)
The activity of the compounds of the present invitation may be determined by the following procedure; Inhibition of human MEK1 kinase activity was monitored with a homogenous, fluorescence based assay. The assay uses time resolved fluorescence resonance energy transfer to probe for phosphorylation of ERK1 by MEK1. The assay is carried out in low volume 96 well microtiterplates. […] After two hours, 5 nM Europium-anti-PY20 (Perkin Elmer) and 50 nM Anti-GST-Allophycocyanin (CisBio) in buffer containing 50 mM EDTA and 0.05% BSA are added and the reaction incubated for one hour in the dark. Time-resolved fluorescence is measured using a LJL-Analyst (Molecular Devices) with an excitation wavelength of 340 nm and an emission wavelength of 665 nm. The final concentration of DMSO is 2%.

[1] = tested on: human pancreatic MiaPaCa-2 cells; test: Tumor cell proliferation assay (ATP Lite), MiaPaCa-2; format: cell-based; conditions: MIA PaCa-2, 96 h, 4 days
Protocol: as §1, §2

[2] = tested on: human melanoma A375 cells; test: Tumor cell proliferation assay (ATP Lite), A375; format: cell-based; conditions: A-375, 96 h, 4 days
Protocol: as §1, §2

Sequence of human MEK1 (Q02750 whole entry): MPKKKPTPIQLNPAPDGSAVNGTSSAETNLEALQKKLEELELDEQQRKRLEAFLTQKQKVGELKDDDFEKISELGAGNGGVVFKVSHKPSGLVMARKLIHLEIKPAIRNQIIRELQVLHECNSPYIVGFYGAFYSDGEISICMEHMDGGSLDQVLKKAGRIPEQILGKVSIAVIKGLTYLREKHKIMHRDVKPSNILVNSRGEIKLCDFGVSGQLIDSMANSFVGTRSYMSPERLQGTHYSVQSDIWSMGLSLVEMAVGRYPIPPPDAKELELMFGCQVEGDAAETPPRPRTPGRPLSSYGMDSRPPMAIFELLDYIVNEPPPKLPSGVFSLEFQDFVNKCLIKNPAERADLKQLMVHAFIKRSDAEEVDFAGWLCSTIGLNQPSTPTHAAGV

Row | SMILES | IC50 (Murine colon C26 cells) | IC50 (human MEK1) | IC50 [1] | IC50 [2]
1 | O=C(NOC[C@H](O)CO)c1ccncc1Nc1ccc(I)cc1F [Example 7, N-{[(2R)-2,3-dihydroxypropyl]oxy}-3-[(2-fluoro-4-iodophenyl)-amino]isonicotin-amide] | ≤ 3 µM | < 1000 nM | ≤ 3 µM | ≤ 3 µM
2 | O=C(NOC[C@H](O)CO)c1ccncc1Nc1ccc(I)cc1Cl [Example 8, 3-[(2-chloro-4-iodophenyl)amino]-N-{[(2R)-2,3-dihydroxypropyl]oxy}-isonicotinamide] | ≤ 3 µM | < 1000 nM | ≤ 3 µM | ≤ 3 µM
3 | COC(=O)c1ccncc1Nc1ccc(I)cc1Cl [Example 10, Methyl 3-[(2-chloro-4-iodophenyl)amino]isonicotinate] | 3 to 10 µM | < 1000 nM | ≤ 3 µM | ≤ 3 µM
4 | NC(=O)c1ccncc1Nc1ccc(I)cc1Cl [Example 11, 3-[(2-chloro-4-iodophenyl)amino]isonicotinamide] | ≤ 3 µM | < 1000 nM | ≤ 3 µM | ≤ 3 µM
5 | NC(=O)c1ccncc1Nc1ccc(I)cc1F [Example 12, 3-[(2-fluoro-4-iodophenyl)amino]isonicotinamide] | ≤ 3 µM | < 1000 nM | ≤ 3 µM | ≤ 3 µM
6 | O=C(NCCN1CCOCC1)c1ccncc1Nc1ccc(I)cc1F [Example 13, 3-(2-Fluoro-4-iodo-phenylamino)-N-(2-morpholin-4-yl-ethyl)-isonicotinamide] | ≤ 3 µM | < 1000 nM | ≤ 3 µM | ≤ 3 µM
7 | CC(O)CNC(=O)c1ccncc1Nc1ccc(I)cc1F (stereo not drawn) [Example 14, 3-[(2-fluoro-4-iodophenyl)amino]-N-(2-hydroxypropyl)-isonicotinamide] | ≤ 3 µM | < 1000 nM | ≤ 3 µM | ≤ 3 µM
8 | O=C(NCCO)c1ccncc1Nc1ccc(I)cc1F [Example 15, 3-(2-Fluoro-4-iodo-phenylamino)-N-(2-hydroxy-ethyl)-isonicotinamide] | ≤ 3 µM | < 1000 nM | ≤ 3 µM | ≤ 3 µM
9 | COCCNC(=O)c1ccncc1Nc1ccc(I)cc1F [Example 16, 3-(2-Fluoro-4-iodo-phenylamino)-N-(2-methoxy-ethyl)-isonicotinamide] | ≤ 3 µM | < 1000 nM | ≤ 3 µM | ≤ 3 µM
10 | O=C(c1ccncc1Nc1ccc(I)cc1F)N1CCOCC1 [Example 17, [3-(2-Fluoro-4-iodo-phenylamino)-pyridin-4-yl]-morpholin-4-yl-methanone] | ≤ 3 µM | < 1000 nM | ≤ 3 µM | ≤ 3 µM
11 | CCNC(=O)c1ccncc1Nc1ccc(I)cc1F [Example 18, N-ethyl-3-[(2-fluoro-4-iodophenyl)amino]isonicotinamide] | ≤ 3 µM | < 1000 nM | ≤ 3 µM | ≤ 3 µM
12 | O=C(NN1CCCCC1)c1ccncc1Nc1ccc(I)cc1F [Example 19, 3-[(2-fluoro-4-iodophenyl)amino]-N-piperidin-1-ylisonicotinamide] | 3 to 10 µM | < 1000 nM | ≤ 3 µM | ≤ 3 µM
13 | O=C(NCCCn1ccnc1)c1ccncc1Nc1ccc(I)cc1F [Example 20, 3-[(2-fluoro-4-iodophenyl)amino]-N-[3-(1H-imidazol-1yl)propyl]-isonicotinamide] | ≤ 3 µM | < 1000 nM | ≤ 3 µM | ≤ 3 µM
14 | O=C(NCc1ccccc1)c1ccncc1Nc1ccc(I)cc1F [Example 21, N-benzyl-3-[(2-fluoro-4-iodophenyl)amino]isonicotinamide] | 3 to 10 µM | < 1000 nM | 3 to 10 µM | ≤ 3 µM
15 | CNC(=O)c1ccncc1Nc1ccc(I)cc1Cl [Example 22, 3-[(2-chloro-4-iodophenyl)amino]-N-methylisonicotinamide] | ≤ 3 µM | < 1000 nM | ≤ 3 µM | ≤ 3 µM
16 | CN(C)C(=O)c1ccncc1Nc1ccc(I)cc1Cl [Example 23, 3-[(2-chloro-4-iodophenyl)amino]-N-dimethylisonicotinamide] | ≤ 3 µM | < 1000 nM | ≤ 3 µM | ≤ 3 µM

Row | SMILES | IC50 (Murine colon C26 cells) | IC50 (human MEK1) | IC50 [1] | IC50 [2]
17 | COCCN(C)C(=O)c1ccncc1Nc1ccc(I)cc1F [Example 24, 3-[(2-fluoro-4-iodophenyl)amino]-N-(2-methoxyethyl)-N-methyl-isonicotinamide] | ≤ 3 µM | < 1000 nM | ≤ 3 µM | ≤ 3 µM
18 | O=C(NN1CCOCC1)c1ccncc1Nc1ccc(I)cc1F [Example 25, 3-[(2-fluoro-4-iodophenyl)amino]-N-morpholin-4-ylisonicotin-amide] | ≤ 3 µM | < 1000 nM | ≤ 3 µM | ≤ 3 µM
19 | O=C(NCCOc1ccccc1)c1ccncc1Nc1ccc(I)cc1F [Example 26, 3-[(2-fluoro-4-iodophenyl)amino]-N-(2-phenoxyethyl)-isonicotinamide] | 3 to 10 µM | < 1000 nM | 3 to 10 µM | ≤ 3 µM
20 | COc1ccccc1CCNC(=O)c1ccncc1Nc1ccc(I)cc1F [Example 27, 3-[(2-fluoro-4-iodophenyl)amino]-N-[2-(2-methoxyphenyl)-ethyl]isonicotinamide] | 3 to 10 µM | < 1000 nM | 3 to 10 µM | 3 to 10 µM
21 | O=C(NNC(=O)c1n[nH]c2ccccc12)c1ccncc1Nc1ccc(I)cc1F [Example 28, N′-{3-[(2-fluoro-4-iodophenyl)amino]isonicotinoyl}-1H-indazole-3-carbohydrazide] | 3 to 10 µM | < 1000 nM | 3 to 10 µM | ≤ 3 µM
22 | O=C(NCCc1cccc(Cl)c1)c1ccncc1Nc1ccc(I)cc1F [Example 29, N-[2-(3-chlorophenyl)ethyl]-3-[(2-fluoro-4-iodophenyl)-amino]isonicotinamide] | 3 to 10 µM | < 1000 nM | 3 to 10 µM | ≤ 3 µM
23 | O=C(NCCCN1CCCC1=O)c1ccncc1Nc1ccc(I)cc1F [Example 30, 3-[(2-fluoro-4-iodophenyl)amino]-N-[3-(2-oxopyrrolidin-1-yl)propyl]isonicotinamide] | ≤ 3 µM | < 1000 nM | ≤ 3 µM | ≤ 3 µM
24 | NC(=O)c1ccnc(Cl)c1Nc1ccc(I)cc1F [Example 31, 2-Chloro-3-(2-fluoro-4-iodo-phenylamino)-isonicotinamide] | ≤ 3 µM | < 1000 nM | ≤ 3 µM | ≤ 3 µM
25 | O=C(NNc1ccccc1)c1ccncc1Nc1ccc(I)cc1F [Example 32, 3-[(2-fluoro-4-iodophenyl)amino]-N′-phenylisonicotinohydrazide] | ≤ 3 µM | < 1000 nM | ≤ 3 µM | ≤ 3 µM
26 | O=C(NCCN1CCCCC1)c1ccncc1Nc1ccc(I)cc1F [Example 33, 3-[(2-fluoro-4-iodophenyl)amino]-N-(2-piperidin-1-ylethyl)-isonicotinamide] | ≤ 3 µM | < 1000 nM | ≤ 3 µM | ≤ 3 µM
27 | CC(C)(C)OC(=O)NC1CCN(C(=O)c2ccncc2Nc2ccc(I)cc2F)CC1 [Example 34, tert-butyl(1-{3-[(2-fluoro-4-iodophenyl)amino]isonicotinoyl}-piperidin-4-yl)carbamate] | 3 to 10 µM | < 1000 nM | 3 to 10 µM | ≤ 3 µM
28 | O=C(NCCCN1CCOCC1)c1ccncc1Nc1ccc(I)cc1F [Example 35, 3-[(2-fluoro-4-iodophenyl)amino]-N-(3-morpholin-4-ylpropyl)-isonicotinamide] | ≤ 3 µM | < 1000 nM | ≤ 3 µM | ≤ 3 µM
29 | O=C(NCCCCCO)c1ccncc1Nc1ccc(I)cc1Cl [Example 36, 3-(2-Chloro-4-iodo-phenylamino)-N-(5-hydroxy-pentyl)-isonicotinamide] | ≤ 3 µM | < 1000 nM | ≤ 3 µM | ≤ 3 µM
30 | O=C(NCCCCO)c1ccncc1Nc1ccc(I)cc1F [Example 39, 3-[(2-fluoro-4-iodophenyl)amino]-N-(4-hydroxybutyl)-isonicotinamide] | ≤ 3 µM | < 1000 nM | ≤ 3 µM | ≤ 3 µM
31 | COCCNC(=O)c1cc(Br)ncc1Nc1ccc(I)cc1F [Example 87, 2-Bromo-5-(2-fluoro-4-iodo-phenylamino)-N-(2-methoxy-ethyl)-isonicotinamide] | – | < 1000 nM | 3 to 10 µM | ≤ 3 µM
